Laboratory results reported in US11141413B2, “Method of treating renal cell carcinoma using N-(4-(6,7-dimethoxyquinolin-4-yloxy)phenyl)-N′-(4-fluorophenyl)cyclopropane-1,1-dicarboxamide, (2S)-hydroxybutanedioate” (Exelixis, Inc., priority 2016, dated 2021).

Tests used:
[1] = target: MRP2 (Homo sapiens, UniProt Q92887); experiment: Drug transporter systems in vitro; format: in vitro ADME
[2] = target: CYP2A6 (Homo sapiens, UniProt P11509); experiment: Metabolic pathways in vitro: effect of CYP inhibition on cabozantinib metabolite formation; format: in vitro ADME
[3] = test system: rasH2 transgenic mice; experiment: 26-week carcinogenicity study; conditions: 26-week study
[4] = target: AXL (Homo sapiens, UniProt P30530); experiment: In vitro biochemical and/or cellular kinase assays
[5] = target: P-gp (Homo sapiens, UniProt P08183); experiment: Drug transporter systems in vitro; format: in vitro ADME
[6] = target: T1, CYP3A4 (Homo sapiens, UniProt P08684); experiment: Clinical drug interaction: strong CYP3A4 inducer rifampin on cabozantinib; format: in vivo; set-up: from tissue; conditions: with rifampin 600 mg daily for 31 days, healthy subjects
[7] = target: T1, CYP3A4; experiment: Clinical drug interaction: strong CYP3A4 inhibitor ketoconazole on cabozantinib; format: in vivo; set-up: from tissue; conditions: with ketoconazole 400 mg daily for 27 days, healthy subjects
[8] = Clinical pharmacokinetics of cabozantinib (absorption, distribution, elimination); format: in vivo, human
Source text: […]; steady state was achieved by Day 15.

[9] = Population pharmacokinetic (PopPK) model (RCC patients and healthy volunteers); format: in vivo, human
Method: The PopPK model was developed using nonlinear mixed effects modeling methodology (NONMEM v7.3) that incorporated 1650 measurable PK concentrations from 345 subjects (Table 10.1).
Covariates were evaluated for effects on apparent plasma clearance (CL/F) and apparent volume of distribution of the central compartment (VF) (Table 10.2).
In FIG. 10.1: • F1=fraction of dose in the first depot; • F2=fraction of dose in the second depot; • Ka=depot 1 absorption rate constant • Ka2=depot 2 absorption rate constant; • ALAG1=depot 1 absorption lag time; • ALAG2=depot 2 absorption lag time • Vc/F=apparent volume of distribution (central compartment); • Vp/F=apparent volume of distribution (peripheral compartment); • Q/F=apparent flow between plasma (central) and peripheral compartments; • CL/F=apparent plasma clearance

[10] = target: VEGFR-3 (Homo sapiens, UniProt P35916); experiment: In vitro biochemical and/or cellular kinase assays
[11] = test system: pregnant rats; experiment: Embryo-fetal development study in pregnant rats
[12] = target: TRKB (Homo sapiens, UniProt Q16620); experiment: In vitro biochemical and/or cellular kinase assays
[13] = target: RET (Homo sapiens, UniProt P07949); experiment: In vitro biochemical and/or cellular kinase assays
[14] = test system: human lymphocytes; experiment: In vitro cytogenetic assay
[15] = test system: metastatic renal cell carcinoma (mRCC); experiment: CABOSUN (ALLIANCE A031203) trial, cabozantinib vs sunitinib as initial targeted therapy
Method: Pts were randomized 1:1 to receive Cabo (60 mg QD) or Sun (50 mg QD, 4 weeks on/2 weeks off). Pts were stratified by the IMDC risk groups (intermediate vs. poor risk) and bone metastasis (yes, no). […] Secondary endpoints included OS, investigator-assessed overall response rate (ORR), and toxicity. The Kaplan-Meier product-limit estimator was used to estimate the OS between treatment arms.

[16] = test system: female rats and offspring; experiment: Pre- and postnatal study in rats; conditions: oral, gestation day 10 through postnatal day 20
[17] = target: CYP2B6 (Homo sapiens, UniProt P20813); experiment: Metabolic pathways in vitro: effect of CYP inhibition on cabozantinib metabolite formation; format: in vitro ADME
[18] = test system: pregnant rabbits; experiment: Embryo-fetal development study in pregnant rabbits; format: in vivo, rabbit; conditions: daily oral administration throughout organogenesis
[19] = target: CYP2C19 (Homo sapiens, UniProt P33261); experiment: Metabolic pathways in vitro: effect of CYP inhibition on cabozantinib metabolite formation; format: in vitro ADME
[20] = target: CYP2D6 (Homo sapiens, UniProt P10635); experiment: as above; format: in vitro ADME
[21] = target: TIE-2 (Homo sapiens, UniProt Q02763); experiment: In vitro biochemical and/or cellular kinase assays
[22] = target: CYP2E1 (Homo sapiens, UniProt P05181); experiment: Metabolic pathways in vitro: effect of CYP inhibition on cabozantinib metabolite formation; format: in vitro ADME
[23] = target: CYP1A2 (Homo sapiens, UniProt P05177); experiment: In vitro CYP inhibition by cabozantinib; format: in vitro ADME
[24] = target: MER (Homo sapiens, UniProt Q12866); experiment: In vitro biochemical and/or cellular kinase assays
[25] = Excretion after single 140 mg 14C-cabozantinib dose in healthy subjects; format: in vivo, human
Method: Approximately 81% of the total administered radioactivity was recovered within a 48-day collection period following a single 140 mg dose of an investigational ^14C-cabozantinib formulation in healthy subjects. Approximately 54% was recovered in feces and 27% in urine.

[26] = test system: advanced renal cell carcinoma; conditions: nivolumab study; cited from earlier work
[27] = final PopPK model parameter estimate
[28] = final PopPK model parameter estimate, RCC patients and healthy volunteers

P-gp, sequence (P08183 whole entry): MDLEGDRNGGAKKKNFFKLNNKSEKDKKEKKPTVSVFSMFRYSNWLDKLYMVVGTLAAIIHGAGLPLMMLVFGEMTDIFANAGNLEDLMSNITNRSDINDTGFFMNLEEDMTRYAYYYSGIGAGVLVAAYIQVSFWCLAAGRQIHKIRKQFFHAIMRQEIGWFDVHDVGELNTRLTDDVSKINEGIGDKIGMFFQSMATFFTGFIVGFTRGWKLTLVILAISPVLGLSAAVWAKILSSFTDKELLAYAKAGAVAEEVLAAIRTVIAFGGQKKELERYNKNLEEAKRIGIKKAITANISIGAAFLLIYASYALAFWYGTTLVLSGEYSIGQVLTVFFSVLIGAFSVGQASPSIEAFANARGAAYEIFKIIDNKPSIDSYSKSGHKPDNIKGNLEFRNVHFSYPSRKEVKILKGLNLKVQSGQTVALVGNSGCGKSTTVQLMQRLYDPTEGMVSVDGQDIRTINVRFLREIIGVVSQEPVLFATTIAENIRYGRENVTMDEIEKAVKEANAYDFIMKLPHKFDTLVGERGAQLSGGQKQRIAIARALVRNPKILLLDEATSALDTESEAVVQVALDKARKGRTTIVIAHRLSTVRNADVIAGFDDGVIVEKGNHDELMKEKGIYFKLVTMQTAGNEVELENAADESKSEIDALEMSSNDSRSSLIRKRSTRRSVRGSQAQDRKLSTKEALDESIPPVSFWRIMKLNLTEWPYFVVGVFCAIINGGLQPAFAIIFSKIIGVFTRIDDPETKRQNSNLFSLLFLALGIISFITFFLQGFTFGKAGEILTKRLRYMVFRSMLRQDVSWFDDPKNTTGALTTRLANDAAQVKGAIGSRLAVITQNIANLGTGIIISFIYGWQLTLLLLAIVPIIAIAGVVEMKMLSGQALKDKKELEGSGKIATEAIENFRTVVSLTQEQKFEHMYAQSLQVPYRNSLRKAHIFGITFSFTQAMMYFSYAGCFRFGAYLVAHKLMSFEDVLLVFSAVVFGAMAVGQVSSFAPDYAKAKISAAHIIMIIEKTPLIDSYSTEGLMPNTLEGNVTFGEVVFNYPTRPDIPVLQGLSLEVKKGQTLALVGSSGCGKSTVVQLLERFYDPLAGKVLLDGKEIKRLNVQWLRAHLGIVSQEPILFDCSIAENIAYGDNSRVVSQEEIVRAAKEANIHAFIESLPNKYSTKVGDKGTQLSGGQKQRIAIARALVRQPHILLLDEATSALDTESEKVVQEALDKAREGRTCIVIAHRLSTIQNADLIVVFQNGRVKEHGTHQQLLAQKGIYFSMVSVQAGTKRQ
T1 sequence (P08684 whole entry): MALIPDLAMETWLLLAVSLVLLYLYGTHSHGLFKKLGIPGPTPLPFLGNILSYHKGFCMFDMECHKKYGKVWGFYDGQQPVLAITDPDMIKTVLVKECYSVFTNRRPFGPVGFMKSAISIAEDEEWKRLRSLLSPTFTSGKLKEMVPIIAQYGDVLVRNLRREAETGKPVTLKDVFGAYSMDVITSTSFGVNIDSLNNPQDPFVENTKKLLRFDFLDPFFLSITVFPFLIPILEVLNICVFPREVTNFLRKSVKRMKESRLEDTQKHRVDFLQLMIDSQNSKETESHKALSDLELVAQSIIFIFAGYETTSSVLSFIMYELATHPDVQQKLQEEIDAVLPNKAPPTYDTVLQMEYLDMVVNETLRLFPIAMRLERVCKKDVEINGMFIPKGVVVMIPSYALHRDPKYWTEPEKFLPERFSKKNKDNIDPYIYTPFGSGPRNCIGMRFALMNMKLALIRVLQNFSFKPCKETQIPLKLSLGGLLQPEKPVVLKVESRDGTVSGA
CYP2B6, sequence (P20813 whole entry): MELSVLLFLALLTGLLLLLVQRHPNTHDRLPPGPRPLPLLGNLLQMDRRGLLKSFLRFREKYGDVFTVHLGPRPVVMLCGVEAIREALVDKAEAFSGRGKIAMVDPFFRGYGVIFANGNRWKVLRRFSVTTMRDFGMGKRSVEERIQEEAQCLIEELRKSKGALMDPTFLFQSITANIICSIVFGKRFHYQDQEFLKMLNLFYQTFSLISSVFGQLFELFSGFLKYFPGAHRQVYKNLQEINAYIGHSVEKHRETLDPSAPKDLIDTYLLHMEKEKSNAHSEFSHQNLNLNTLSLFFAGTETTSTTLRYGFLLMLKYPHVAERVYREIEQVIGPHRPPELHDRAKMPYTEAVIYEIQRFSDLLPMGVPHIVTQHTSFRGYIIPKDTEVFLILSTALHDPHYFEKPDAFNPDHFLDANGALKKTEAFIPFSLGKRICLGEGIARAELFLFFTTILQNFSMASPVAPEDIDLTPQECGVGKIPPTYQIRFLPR
VEGFR-3, sequence (P35916 25-1363): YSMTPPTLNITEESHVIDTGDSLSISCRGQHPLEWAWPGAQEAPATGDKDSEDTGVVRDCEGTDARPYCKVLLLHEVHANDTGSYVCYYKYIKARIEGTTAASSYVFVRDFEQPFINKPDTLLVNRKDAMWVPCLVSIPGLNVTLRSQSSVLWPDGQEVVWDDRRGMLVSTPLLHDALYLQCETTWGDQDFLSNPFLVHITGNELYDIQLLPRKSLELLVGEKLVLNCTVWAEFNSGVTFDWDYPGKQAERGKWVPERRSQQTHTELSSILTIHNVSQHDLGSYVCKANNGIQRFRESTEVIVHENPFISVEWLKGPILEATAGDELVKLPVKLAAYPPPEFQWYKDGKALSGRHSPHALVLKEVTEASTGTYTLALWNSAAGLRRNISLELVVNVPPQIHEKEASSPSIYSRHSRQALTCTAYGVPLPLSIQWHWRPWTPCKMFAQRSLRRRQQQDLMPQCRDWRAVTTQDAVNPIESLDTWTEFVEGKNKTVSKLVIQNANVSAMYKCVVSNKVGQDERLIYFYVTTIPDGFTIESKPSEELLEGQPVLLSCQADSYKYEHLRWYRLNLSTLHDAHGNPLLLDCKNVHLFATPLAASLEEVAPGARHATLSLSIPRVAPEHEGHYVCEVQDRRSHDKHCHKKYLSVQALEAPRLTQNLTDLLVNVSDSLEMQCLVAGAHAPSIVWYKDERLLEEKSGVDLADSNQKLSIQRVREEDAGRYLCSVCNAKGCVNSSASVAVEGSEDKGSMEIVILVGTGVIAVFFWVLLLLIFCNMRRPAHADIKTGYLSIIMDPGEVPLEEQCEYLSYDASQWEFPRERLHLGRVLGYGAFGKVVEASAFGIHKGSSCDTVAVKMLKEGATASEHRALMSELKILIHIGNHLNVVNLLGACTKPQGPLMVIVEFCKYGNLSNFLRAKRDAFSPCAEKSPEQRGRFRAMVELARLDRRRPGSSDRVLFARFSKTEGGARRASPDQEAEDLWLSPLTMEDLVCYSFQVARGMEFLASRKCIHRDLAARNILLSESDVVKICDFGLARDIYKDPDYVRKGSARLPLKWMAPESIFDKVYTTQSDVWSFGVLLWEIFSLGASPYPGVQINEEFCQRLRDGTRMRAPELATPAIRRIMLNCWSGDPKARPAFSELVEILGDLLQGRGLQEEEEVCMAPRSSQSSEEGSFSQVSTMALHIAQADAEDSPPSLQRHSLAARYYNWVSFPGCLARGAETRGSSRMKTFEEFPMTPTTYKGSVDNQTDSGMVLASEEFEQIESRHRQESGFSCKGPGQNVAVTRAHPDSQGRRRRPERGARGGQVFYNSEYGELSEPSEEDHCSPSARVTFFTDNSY
AXL, sequence (P30530 26-894): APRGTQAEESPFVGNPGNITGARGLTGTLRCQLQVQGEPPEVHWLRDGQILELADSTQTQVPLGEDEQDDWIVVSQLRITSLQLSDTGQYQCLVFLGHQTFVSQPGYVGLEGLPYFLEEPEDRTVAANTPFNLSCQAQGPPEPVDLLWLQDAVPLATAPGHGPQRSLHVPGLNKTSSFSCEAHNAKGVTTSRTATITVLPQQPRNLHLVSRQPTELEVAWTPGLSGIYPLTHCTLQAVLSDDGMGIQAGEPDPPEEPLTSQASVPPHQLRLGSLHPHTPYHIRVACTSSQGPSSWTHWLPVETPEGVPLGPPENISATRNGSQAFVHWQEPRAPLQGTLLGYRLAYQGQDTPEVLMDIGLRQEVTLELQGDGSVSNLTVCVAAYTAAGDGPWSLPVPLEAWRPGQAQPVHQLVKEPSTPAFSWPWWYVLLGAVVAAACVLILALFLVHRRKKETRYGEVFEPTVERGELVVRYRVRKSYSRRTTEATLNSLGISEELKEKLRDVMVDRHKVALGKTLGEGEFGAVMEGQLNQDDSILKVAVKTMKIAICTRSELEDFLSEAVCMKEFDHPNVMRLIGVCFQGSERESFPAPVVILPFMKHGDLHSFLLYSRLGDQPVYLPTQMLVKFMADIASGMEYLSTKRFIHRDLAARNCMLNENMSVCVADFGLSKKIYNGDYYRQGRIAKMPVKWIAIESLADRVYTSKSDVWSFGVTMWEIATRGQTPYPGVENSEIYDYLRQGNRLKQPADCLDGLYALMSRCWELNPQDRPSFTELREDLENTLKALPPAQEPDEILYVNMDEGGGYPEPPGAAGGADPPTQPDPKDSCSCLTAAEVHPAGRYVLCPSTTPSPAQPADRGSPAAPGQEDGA
CYP2C19, sequence (P33261 whole entry): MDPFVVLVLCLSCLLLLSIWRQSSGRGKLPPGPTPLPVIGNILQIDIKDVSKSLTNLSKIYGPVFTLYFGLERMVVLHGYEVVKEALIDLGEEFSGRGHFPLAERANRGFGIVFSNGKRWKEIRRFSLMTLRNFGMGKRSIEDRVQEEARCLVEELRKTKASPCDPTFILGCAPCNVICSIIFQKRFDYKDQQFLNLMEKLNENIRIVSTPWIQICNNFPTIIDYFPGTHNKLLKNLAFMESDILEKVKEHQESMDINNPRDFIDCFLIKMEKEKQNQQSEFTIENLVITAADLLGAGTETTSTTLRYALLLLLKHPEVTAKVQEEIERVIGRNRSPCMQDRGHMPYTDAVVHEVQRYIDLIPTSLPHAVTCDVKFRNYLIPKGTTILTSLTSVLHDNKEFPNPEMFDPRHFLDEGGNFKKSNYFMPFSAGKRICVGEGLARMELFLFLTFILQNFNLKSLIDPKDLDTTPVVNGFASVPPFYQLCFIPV

COc1cc2nccc(Oc3ccc(NC(=O)C4(C(=O)Nc5ccc(F)cc5)CC4)cc3)c2cc1OC [cabozantinib]
MRP2 substrate status in vitro [1]: substrate
Effect of inhibition of CYP2A6 on cabozantinib metabolite formation [2]: no effect
Carcinogenicity [3]: not carcinogenic
Inhibition of tyrosine kinase activity [4]: inhibits
Inhibition of P-gp transport activities [5]: inhibitor
P-gp substrate status [5]: not a substrate
Decrease in single-dose plasma cabozantinib exposure (AUC0-inf) [6]: 77%
Increase in single-dose plasma cabozantinib exposure (AUC0-inf) [7]: 38%
Effect of age, sex, race, mild to moderate renal impairment on pharmacokinetics ([8]; age 32-86 years, eGFR ≥30 mL/min/1.73 m^2): did not result in a clinically relevant difference
Clearance (CL/F) at steady-state ([8]; human, in vivo): 2.2 L/h
Predicted terminal half-life ([8]; human, in vivo): approximately 99 hours
Tmax ([8]; human, plasma, oral administration, read-out: Median time to peak plasma concentration (Tmax)): 2 to 3 h
Steady state achieved by ([8]; repeat daily dosing at 140 mg): ≤ 15 days
Predicted steady-state average concentration ([9]; 20 mg dose level): 375 ng/mL
Predicted steady-state average concentration ([9]; 40 mg dose level): 750 ng/mL
Predicted steady-state average concentration ([9]; 60 mg dose level): 1125 ng/mL
CL/F (oral clearance), PopPK estimate ([9]; White male): 2.23 L/h
Vc/F, PopPK estimate ([9]; White male): 81.5 L
ALAG1 (depot 1 absorption lag time) [9, 27]: 0.459 h
ALAG2 (depot 2 absorption lag time) [9, 27]: 16.8 h
Q/F (apparent flow between plasma (central) and peripheral compartments) [9, 27]: 14.2 L/h
Vp/F (apparent volume of distribution, peripheral compartment) [9, 27]: 213 L
Ka2 (depot 2 absorption rate constant) [9, 28]: 0.102 h⁻¹
Ka (depot 1 absorption rate constant) [9, 28]: 0.568 h⁻¹
CL/F (apparent plasma clearance) ([9]; final PopPK model parameter estimate, White male): 2.23 L/h
Inter-individual variability of CL/F ([9]; human, in vivo): 46 % CV
Lower CL/F in Asian vs White subjects ([9]; human, in vivo): 27%
Lower CL/F in female vs male subjects ([9]; human, in vivo): 21%
Vd/F ([9]; human, plasma, oral, final PopPK model parameter estimate, White male, read-out: Vc/F (apparent volume of distribution, central compartment)): 81.5 L
Vd ([9]; human, plasma, oral, subject, read-out: Terminal phase volume of distribution, PopPK estimate): 319 L
Inhibition of tyrosine kinase activity [10]: inhibits
Dose causing increased embryo-fetal lethality compared to controls ([11]; daily oral administration throughout organogenesis): 0.03 mg/kg
Dose with delayed ossification and skeletal variations ([11]; female, rat, in vivo, 0.1 mg/kg/day): 0.1 mg/kg/day
Inhibition of tyrosine kinase activity [12]: inhibits
Inhibition of tyrosine kinase activity [13]: inhibits
Clastogenicity [14]: not clastogenic
Diarrhea, grade 3 or 4 ([15]; all-causality): 10%
Fatigue, grade 3 or 4 ([15]; all-causality): 6%
Hematologic adverse events, grade 3 or 4 ([15]; all-causality): 3%
Hypertension, grade 3 or 4 ([15]; all-causality): 28%
Palmar-plantar erythrodysesthesia, grade 3 or 4 ([15]; all-causality): 8%
All-causality grade 3 or 4 adverse events ([15]; in vivo): 67%
Median OS ([15]; in vivo): 30.3 months
ORR ([15]; in vivo): 46%
OS adjusted HR, cabozantinib vs sunitinib ([15]; in vivo): 0.80
Reduction in rate of progression or death vs sunitinib ([15]; in vivo): 34%
Median PFS ([15]; untreated mRCC, intermediate or poor risk): 8.2 months
Doses without adverse maternal toxicity or effect on pregnancy, parturition, lactation, offspring survival, growth or postnatal development [16]: up to 0.3 mg/kg/day
Effect of inhibition of CYP2B6 on cabozantinib metabolite formation [17]: no effect
Dose with visceral malformations and variations (reduced spleen size, missing lung lobe) [18]: 3 mg/kg
Effect of inhibition of CYP2C19 on cabozantinib metabolite formation [19]: no effect
Effect of inhibition of CYP2D6 on cabozantinib metabolite formation [20]: no effect
Inhibition of tyrosine kinase activity [21]: inhibits
Effect of inhibition of CYP2E1 on cabozantinib metabolite formation [22]: no effect
Inhibition of CYP1A2 in vitro [23]: does not inhibit
Inhibition of tyrosine kinase activity [24]: inhibits
Radioactivity recovered in feces ([25]; 48-day collection): Approximately 54%
Radioactivity recovered in urine ([25]; 48-day collection): ~27%
Unchanged cabozantinib in urine ([25]; 72 hour collection): not detectable
Unchanged cabozantinib, share of total radioactivity in feces ([25]; 72 hour collection): 43%
Total administered radioactivity recovered ([25]; within a 48-day collection period, single 140 mg dose): Approximately 81%

CO[C@H]1C[C@@H]2CC[C@@H](C)[C@@](O)(O2)C(=O)C(=O)N2CCCC[C@H]2C(=O)O[C@H]([C@H](C)C[C@@H]2CC[C@@H](OCCO)[C@H](OC)C2)CC(=O)[C@H](C)/C=C(\C)[C@@H](O)[C@@H](OC)C(=O)[C@H](C)C[C@H](C)/C=C/C=C/C=C/1C [everolimus]
Median OS of comparator arm [26]: 19.6 months
Median PFS of control arm [26]: 4.4 months
